# In paper PMC6268188, “Comparative Studies of the (Anti) Mutagenicity of Baccharis dracunculifolia and Artepillin C by the Bacterial Reverse Mutation Test” (Molecules, 2012):
# Where two headings read alike, the source gives them in different places.
# Experiments:
# [1] = system: S. typhimurium TA100
# [2] = system: mouse micronucleus and comet; set-up: method as in PMID 21259290; settings: mouse micronucleus and comet assays; cited from earlier work
smiles,measurement,setting,value
"CC(C)=CCc1cc(/C=C/C(=O)O)cc(CC=C(C)C)c1O [ArtC, 3-{4-hydroxy-3,5-di(3-methyl-2-butenyl)phenyl}-2(E)-propenoic acid]",MI (mutagenicity index),"[1]; 0.69 µg/plate, TA 100, + S9",1.0
same,Number of revertants (M ± SD)/ plate,"[1]; 0.69 µg/plate, TA 100, + S9",171 ± 1 revertants/plate
same,MI (mutagenicity index),"[1]; 0.69 µg/plate, TA 100, − S9",1.2
same,Number of revertants (M ± SD)/ plate,"[1]; 0.69 µg/plate, TA 100, − S9",179 ± 4 revertants/plate
same,MI (mutagenicity index),"[1]; 1.37 µg/plate, TA 100, + S9",1.0
same,Number of revertants (M ± SD)/ plate,"[1]; 1.37 µg/plate, TA 100, + S9",171 ± 2 revertants/plate
same,MI (mutagenicity index),"[1]; 1.37 µg/plate, TA 100, − S9",1.1
same,Number of revertants (M ± SD)/ plate,"[1]; 1.37 µg/plate, TA 100, − S9",174 ± 4 revertants/plate
same,MI (mutagenicity index),"[1]; 2.75 µg/plate, TA 100, + S9",0.9
same,Number of revertants (M ± SD)/ plate,"[1]; 2.75 µg/plate, TA 100, + S9",144 ± 2 revertants/plate
same,MI (mutagenicity index),"[1]; 2.75 µg/plate, TA 100, − S9",1.1
same,Number of revertants (M ± SD)/ plate,"[1]; 2.75 µg/plate, TA 100, − S9",169 ± 6 revertants/plate
same,MI (mutagenicity index),"[1]; 5.49 µg/plate, TA 100, + S9",0.9
same,Number of revertants (M ± SD)/ plate,"[1]; 5.49 µg/plate, TA 100, + S9",153 ± 2 revertants/plate
same,MI (mutagenicity index),"[1]; 5.49 µg/plate, TA 100, − S9",1.0
same,Number of revertants (M ± SD)/ plate,"[1]; 5.49 µg/plate, TA 100, − S9",158 ± 7 revertants/plate
same,genotoxic potential,[2],not genotoxic
